Reference: ChEMBL document CHEMBL5154808, “Novel β-Hairpin Antimicrobial Peptides Containing the β-Turn Sequence of -RRRF- Having High Cell Selectivity and Low Incidence of Drug Resistance” (J Med Chem, 2022)
Calls of active or inactive are those of the source. The calls are words filed in the database; no cut-off is given here.

Assays:
Staphylococcus aureus [1] = assay: Antimicrobial activity against Staphylococcus aureus ATCC 25923 assessed as reduction of bacterial growth incubated for 18 hrs by CLSI protocol based broth microdilution method; assay type: functional
Escherichia coli [2] = assay: Antimicrobial activity against Escherichia coli ATCC 25922 assessed as fold change in MIC incubated for 18 hrs in presence of 4.5 mM KCl by CLSI protocol based broth microdilution method relative to control; assay type: functional
Enterococcus faecalis = assay: Antimicrobial activity against Enterococcus faecalis ATCC 29212 assessed as reduction of bacterial growth incubated for 18 hrs by CLSI protocol based broth microdilution method; assay type: functional
Escherichia coli [3] = assay: Synergistic antibacterial activity against Escherichia coli ATCC 25922 assessed as fractional inhibitory concentration index incubated for 18 hrs in presence of rifampicin by checker board assay; assay type: functional
Erythrocyte = assay: Hemolytic activity in mouse red blood cells assessed as release of hemoglobin incubated for 1 hr by microplate reader method; assay type: toxicity, cell-based
Escherichia coli [4] = assay: Antimicrobial activity against Escherichia coli ATCC 25922 assessed as reduction of bacterial growth at 2 times MIC incubated for 18 hrs in presence of chymotrypsin by CLSI protocol based broth microdilution method; assay type: functional, organism-based
Escherichia coli [5] = assay: Antimicrobial activity against Escherichia coli ATCC 25922 assessed as fold change in MIC incubated for 18 hrs in presence of 150 mM NaCl by CLSI protocol based broth microdilution method relative to control; assay type: functional
Staphylococcus aureus [6] = assay: Bactericidal activity against Staphylococcus aureus ATCC 25923 assessed as time required to kill bacteria at 2 times MIC by time-killing assay; assay type: functional
Escherichia coli [7] = assay: Synergistic antibacterial activity against Escherichia coli ATCC 25922 assessed as fractional inhibitory concentration index incubated for 18 hrs in presence of polymyxin B by checker board assay; assay type: functional
Cell membrane [8] = assay: Induction of cytoplasmic membrane depolarization in Staphylococcus aureus ATCC 25923 assessed as increase in fluorescence intensity at 1 to 4 times MIC measured after 1 min by DiSC3-5 dye based fluorescence method; assay type: subcellular; details: DDE = dose-dependent effect
Staphylococcus aureus [9] = assay: Antibacterial activity against Staphylococcus aureus ATCC 25923 infected BALB/c mouse assessed as reduction in pulmonary inflammatory cell infiltration at 5 to 10 mg/kg, ip measured after 24 hrs by hematoxylin and eosin staining based assay; assay type: functional, organism-based; details: dose 5-10 mg/kg
Staphylococcus aureus [10] = assay: Antimicrobial activity against Staphylococcus aureus ATCC 25923 assessed as fold change in MICincubated for 18 hrs in presence of 150 mM NaCl by CLSI protocol based broth microdilution method relative to control; assay type: functional
Escherichia coli [11] = assay: Antimicrobial activity against Escherichia coli ATCC 25922 assessed as fold change in MIC incubated for 18 hrs in presence of 1 mM MgCl2 by CLSI protocol based broth microdilution method relative to control; assay type: functional
Lipopolysaccharide (LPS) = assay: Binding affinity to LPS (unknown origin) assessed as reduction in bactericidal activity against Escherichia coli ATCC 25922 at 2 times MIC incubated for 2 hrs in presence of 32 ug/ml of LPS by competitive binding assay
Cell membrane [12] = assay: Induction of cytoplasmic membrane depolarization in […] assessed as increase in fluorescence intensity at 1 to 4 times MIC measured after 1 min by DiSC3-5 dye based fluorescence method; assay type: subcellular
Staphylococcus aureus [13] = assay: Antimicrobial activity against Staphylococcus aureus ATCC 25923 assessed as disruption of biofilm formation measured after 2 hrs by SEM analysis; assay type: functional, organism-based
Escherichia coli [14] = assay: Antimicrobial activity against Escherichia coli ATCC 25922 assessed as cell membrane breakage measured after 30 mins by SEM analysis; assay type: functional, organism-based
Staphylococcus aureus [15] = assay: Synergistic antibacterial activity against Staphylococcus aureus ATCC 25923 assessed as fractional inhibitory concentration index incubated for 18 hrs in presence of kanamycin by checker board assay; assay type: functional
Escherichia coli [16] = assay: Antimicrobial activity against rifampicin-resistant Escherichia coli ATCC 25922; assay type: functional
Escherichia coli [17] = assay: Antimicrobial activity against Escherichia coli ATCC 25922 assessed as fold change in MIC incubated for 18 hrs in presence of 10% serum by CLSI protocol based broth microdilution method relative to control; assay type: functional
Staphylococcus aureus [18] = assay: Antimicrobial activity against Staphylococcus aureus ATCC 25923 assessed as breakage of cell membrane measured after 2 hrs by SEM analysis; assay type: functional, organism-based
Cell membrane [19] = assay: Induction of outer membrane permeabilization in Pseudomonas aeruginosa ATCC 27853 by NPN fluorescent dye based assay; assay type: subcellular; details: DDE = dose-dependent effect
Cell membrane [20] = assay: Induction of cytoplasmic membrane depolarization in Pseudomonas aeruginosa ATCC 27853 assessed as increase in fluorescence intensity at 1 to 4 times MIC measured after 1 min by DiSC3-5 dye based fluorescence method; assay type: subcellular
Bacillus subtilis = assay: Antimicrobial activity against Bacillus subtilis ATCC 23857 assessed as reduction of bacterial growth incubated for 18 hrs by CLSI protocol based broth microdilution method; assay type: functional
Staphylococcus aureus [21] = assay: Antimicrobial activity against rifampicin-resistant Staphylococcus aureus ATCC 25923; assay type: functional
Cell membrane [22] = assay: Induction of outer membrane permeabilization in Escherichia coli ATCC 25922 by NPN fluorescent dye based assay; assay type: subcellular; details: DDE = dose-dependent effect
Klebsiella pneumoniae = assay: Antimicrobial activity against Klebsiella pneumoniae ATCC 700603 assessed as reduction of bacterial growth incubated for 18 hrs by CLSI protocol based broth microdilution method; assay type: functional
Escherichia coli [23] = assay: Antimicrobial activity against kanamycin-resistant Escherichia coli ATCC 25922; assay type: functional
Staphylococcus aureus [24] = assay: Antimicrobial activity against Staphylococcus aureus ATCC 25923 assessed as reduction of bacterial growth at 2 times MIC incubated for 18 hrs in presence of chymotrypsin by CLSI protocol based broth microdilution method; assay type: functional, organism-based
Pseudomonas aeruginosa = assay: Antimicrobial activity against Pseudomonas aeruginosa ATCC 27853 assessed as reduction of bacterial growth incubated for 18 hrs by CLSI protocol based broth microdilution method; assay type: functional
Escherichia coli [25] = assay: Antimicrobial activity against Escherichia coli ATCC 25922 assessed as adherence to cell membrane measured after 30 mins by SEM analysis; assay type: functional, organism-based
[26] = Stability in mouse serum assessed as drug degradation by measuring retention time at 10 mM measured upto 360 mins by RP-HPLC analysis; assay type: ADME, cell-free; details: 6 h, 10000 µM
[27] = Acute toxicity in ip dosed Kunming mouse assessed as lethal dose; assay type: organism-based; details: in vivo
Staphylococcus aureus [28] = assay: Antimicrobial activity against kanamycin-resistant Staphylococcus aureus ATCC 25923; assay type: functional
Staphylococcus aureus [29] = assay: Antimicrobial activity against Staphylococcus aureus ATCC 25923 assessed as fold change in MIC incubated for 18 hrs in presence of 1 mM MgCl2 by CLSI protocol based broth microdilution method relative to control; assay type: functional
Staphylococcus aureus [30] = assay: Antibacterial activity against Staphylococcus aureus ATCC 25923 infected in BALB/c mouse assessed as reduction in bacterial load in lung at 5 to 10 mg/kg, ip measured after 4 to 12 hrs (reference value: 5.6 x 10^6 CFU/g); assay type: functional; details: dose 5-10 mg/kg, time 4-12 hrs
Staphylococcus aureus [31] = assay: Antibacterial activity against Staphylococcus aureus ATCC 25923 infected BALB/c mouse assessed as reduction in alveolar constriction at 5 to 10 mg/kg, ip measured after 24 hrs by hematoxylin and eosin staining based assay; assay type: functional, organism-based; details: dose 5-10 mg/kg
Cell membrane [32] = assay: Induction of inner membrane permeabilization in Escherichia coli ML-35 ATCC 43587 at 1 to 4 times MIC by ONPG based assay

H-KWKWKRRRFKWKWK-NH2
MIC (Staphylococcus aureus [1]): 8 µM | fold change (FC) (Escherichia coli [2]): 1 | MIC (Enterococcus faecalis): 16 µM | fractional inhibitory concentration index (FICI) (Escherichia coli [3]): 0.625 | HC10 (Erythrocyte): > 256 µM | Activity (Escherichia coli [4]): Active | fold change (FC) (Escherichia coli [5]): 1 | Time (Staphylococcus aureus [6]): 90 min | fractional inhibitory concentration index (FICI) (Escherichia coli [7]): 0.375 | Activity (Cell membrane [8]): Dde | Activity (Staphylococcus aureus [9]): Active | fold change (FC) (Staphylococcus aureus [10]): 2 | fold change (FC) (Escherichia coli [11]): 1 | Activity (Lipopolysaccharide (LPS)): Active | Activity (Cell membrane [12]): Active | Activity (Staphylococcus aureus [13]): Active | Activity (Escherichia coli [14]): Active | fractional inhibitory concentration index (FICI) (Staphylococcus aureus [15]): 0.5 | MIC (Escherichia coli [16]): 4 µM | fold change (FC) (Escherichia coli [17]): 1 | Activity (Staphylococcus aureus [18]): Active | Activity (Cell membrane [19]): Dde | Activity (Cell membrane [20]): Active | MIC (Bacillus subtilis): 4 µM | MIC (Staphylococcus aureus [21]): 4 µM | Activity (Cell membrane [22]): Dde | MIC (Klebsiella pneumoniae): 16 µM | MIC (Escherichia coli [23]): 4 µM | Activity (Staphylococcus aureus [24]): Active | MIC (Pseudomonas aeruginosa): 4 µM | Activity (Escherichia coli [25]): Active | Retention_time [26]: 11.505 min | LD50 [27]: 62.2 mg/kg | MIC (Staphylococcus aureus [28]): 4 µM | fold change (FC) (Staphylococcus aureus [29]): 1 | Activity (Staphylococcus aureus [30]): 0 CFU/g | Activity (Staphylococcus aureus [31]): Active | Activity (Cell membrane [32]): Active

H-RIRIRRRRFRIRIR-NH2
MIC (Staphylococcus aureus [1]): 4 µM | fold change (FC) (Escherichia coli [2]): 2 | MIC (Enterococcus faecalis): 8 µM | fractional inhibitory concentration index (FICI) (Escherichia coli [3]): 1 | HC10 (Erythrocyte): > 256 µM | Activity (Escherichia coli [4]): Active | fold change (FC) (Escherichia coli [5]): 4 | Time (Staphylococcus aureus [6]): 30 min | fractional inhibitory concentration index (FICI) (Escherichia coli [7]): 0.5 | Activity (Cell membrane [8]): Dde | Activity (Staphylococcus aureus [9]): Active | fold change (FC) (Staphylococcus aureus [10]): 2 | fold change (FC) (Escherichia coli [11]): 1 | Activity (Lipopolysaccharide (LPS)): Active | Activity (Cell membrane [12]): Active | Activity (Staphylococcus aureus [13]): Active | Activity (Escherichia coli [14]): Active | fractional inhibitory concentration index (FICI) (Staphylococcus aureus [15]): 0.5625 | MIC (Escherichia coli [16]): 4 µM | fold change (FC) (Escherichia coli [17]): 1 | Activity (Staphylococcus aureus [18]): Active | Activity (Cell membrane [19]): Dde | Activity (Cell membrane [20]): Active | MIC (Bacillus subtilis): 2 µM | MIC (Staphylococcus aureus [21]): 4 µM | Activity (Cell membrane [22]): Dde | MIC (Klebsiella pneumoniae): 8 µM | MIC (Escherichia coli [23]): 4 µM | Activity (Staphylococcus aureus [24]): Active | MIC (Pseudomonas aeruginosa): 4 µM | Activity (Escherichia coli [25]): Active | Retention_time [26]: 10.623 min | LD50 [27]: 77.1 mg/kg | MIC (Staphylococcus aureus [28]): 4 µM | fold change (FC) (Staphylococcus aureus [29]): 2 | Activity (Staphylococcus aureus [30]): 0 CFU/g | Activity (Staphylococcus aureus [31]): Active | Activity (Cell membrane [32]): Active
